The source of these data is patent US7531529B2, “Imidazole derivatives” (Roche Palo Alto LLC, priority 2003, dated 2009).

The Ki is a dissociation constant, usually derived from enzyme kinetics or from competition with a known ligand.

T1 sequence (P41594 21-1180 isoform P41594-2 limits assumed): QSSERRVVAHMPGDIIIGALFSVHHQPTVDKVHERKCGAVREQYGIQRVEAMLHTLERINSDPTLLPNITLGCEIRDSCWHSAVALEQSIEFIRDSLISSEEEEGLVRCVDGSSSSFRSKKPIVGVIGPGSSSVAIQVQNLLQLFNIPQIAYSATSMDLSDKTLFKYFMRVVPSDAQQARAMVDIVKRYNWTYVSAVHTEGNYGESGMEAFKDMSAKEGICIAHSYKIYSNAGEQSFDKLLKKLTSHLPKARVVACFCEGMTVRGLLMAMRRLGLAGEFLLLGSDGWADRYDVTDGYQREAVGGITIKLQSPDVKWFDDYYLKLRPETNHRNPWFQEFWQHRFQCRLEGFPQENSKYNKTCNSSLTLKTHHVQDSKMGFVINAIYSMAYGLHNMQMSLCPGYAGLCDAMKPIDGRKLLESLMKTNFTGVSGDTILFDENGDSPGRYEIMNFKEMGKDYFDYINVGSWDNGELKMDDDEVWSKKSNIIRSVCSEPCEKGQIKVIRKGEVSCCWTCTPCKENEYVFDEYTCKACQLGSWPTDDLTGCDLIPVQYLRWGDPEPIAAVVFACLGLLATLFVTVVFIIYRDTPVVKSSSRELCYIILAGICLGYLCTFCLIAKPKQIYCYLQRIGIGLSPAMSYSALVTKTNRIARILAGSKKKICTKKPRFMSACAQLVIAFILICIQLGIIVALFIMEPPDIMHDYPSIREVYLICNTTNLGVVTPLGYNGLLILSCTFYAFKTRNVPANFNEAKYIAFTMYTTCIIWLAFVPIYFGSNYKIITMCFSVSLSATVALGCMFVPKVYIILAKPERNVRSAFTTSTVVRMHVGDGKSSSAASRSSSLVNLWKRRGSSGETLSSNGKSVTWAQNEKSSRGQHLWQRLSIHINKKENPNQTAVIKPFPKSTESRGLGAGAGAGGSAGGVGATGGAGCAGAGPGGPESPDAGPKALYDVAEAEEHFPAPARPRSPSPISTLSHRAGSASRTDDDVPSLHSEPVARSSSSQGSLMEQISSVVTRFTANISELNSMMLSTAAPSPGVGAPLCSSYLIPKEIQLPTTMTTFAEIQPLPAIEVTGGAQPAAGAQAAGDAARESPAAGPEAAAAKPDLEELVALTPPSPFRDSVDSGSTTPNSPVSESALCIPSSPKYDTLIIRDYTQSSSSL

This assay has as its target T1, human mGlu5a receptor (Homo sapiens, UniProt P41594).
T1 construct: expressed in transfected cells; host or cells: EBNA cells (transient transfection); cell membrane homogenates
Nature of the assay: [3H]MPEP competition binding on membranes of EBNA cells transfected with human mGlu5a receptor. As for the experimental part: For binding experiments, cDNA encoding human mGlu5a receptor was transiently transfected into EBNA cells using a procedure described by Schlaeger and Christensen [Cytotechnology 15:1-13 (1998)]. Cell membrane homogenates were stored at −80° C. until the day of assay where upon they were thawed and resuspended and polytronised in 15 mM Tris-HCl, 120 mM NaCl, 100 mM KCl, 25 mM CaCl2, 25 mM MgCl2 binding buffer at pH 7.4 to a final assay concentration of 20 μg protein/ well.
Saturation isotherms were determined by addition of twelve [^3H]MPEP concentrations (0.04-100 nM) to these membranes (in a total volume of 200 μl) for 1 h at 4° C. Competition experiments were performed with a fixed concentration of [^3H]MPEP (2 nM) and IC50 values of test compounds evaluated using 11 concentrations (0.3-10,000 nM). Incubations were performed for 1 h at 4° C.
At the end of the incubation, membranes were filtered onto unifilter (96-well white microplate with bonded GF/C filter preincubated 1 h in 0.1% PEI in wash buffer, Packard BioScience, Meriden, Conn.) with a Filtermate 96 harvester (Packard BioScience) and washed 3 times with cold 50 mM Tris-HCl, pH 7.4 buffer. Nonspecific binding was measured in the presence of 10 μM MPEP. The radioactivity on the filter was counted (3 min) on a Packard Top-count microplate scintillation counter with quenching correction after addition of 45 μl of microscint 40 (Canberra Packard S.A., Zürich, Switzerland) and shaking for 20 min.
The Ki value is defined by the following formula: Ki=IC50/[1+L/Kd] in which the IC50 values are those concentrations of the compounds tested which cause 50% inhibition of the competing radioligand ([^3H]MPEP). L is the concentration of radioligand used in the binding experiment and the Kd value of the radioligand is empirically determined for each batch of membranes prepared.
As for `Cc1nc(C#Cc2ccnc(F)c2)cn1-c1ccc(F)cc1` [Example 2, 2-Fluoro-4-[1-(4-fluoro-phenyl)-2-methyl-1H-imidazol-4-ylethynyl]-pyridine], the Ki came to 23 nM.
With `Cc1nc(C#Cc2ccnc(Cl)c2)cn1-c1cccc(C(F)(F)F)n1` [Example 5, 2-[4-(2-Chloro-pyridin-4-ylethynyl)-2-methyl-imidazol-1-yl]-6-trifluoromethyl-pyridine] the figure was 21 nM; with `Cc1nc(C#Cc2ccnc(Cl)c2)cn1-c1cncc(F)c1` [Example 6, 3-[4-(2-Chloro-pyridin-4-ylethynyl)-2-methyl-imidazol-1-yl]-5-fluoro-pyridine], 63 nM.
Next, `Cc1nc(C#Cc2ccnc(Cl)c2)cn1-c1ccc(Cl)c(Cl)c1` [Example 8, 2-Chloro-4-[1-(3,4-dichloro-phenyl)-2-methyl-1H-imidazol-4-ylethynyl]-pyridine]: 24 nM; `Cc1nc(C#Cc2ccnc(C#N)c2)cn1-c1ccc(F)cc1` [Example 10, 4-[1-(4-Fluoro-phenyl)-2-methyl-1H-imidazol-4-ylethynyl]-pyridine-2-carbonitrile]: 44 nM.
Consider `Cc1cc(-n2cc(C#Cc3ccnc(Cl)c3)nc2C)ccc1F` [Example 18, 2-Chloro-4-[1-(4-fluoro-3-methyl-phenyl)-2-methyl-1H-imidazol-4-ylethynyl]-pyridine], for which the Ki came to 25 nM.
As for `Cc1ccc(-n2cc(C#Cc3ccnc(Cl)c3)nc2C)cc1` [Example 20, 2-Chloro-4-[1-(4-methyl-phenyl)-2-methyl-1H-imidazol-4-ylethynyl]-pyridine], the Ki was 15 nM.
Turning to `COc1ccc(-n2cc(C#Cc3ccnc(Cl)c3)nc2C)cc1` [Example 22, 2-Chloro-4-[1-(4-methoxy-phenyl)-2-methyl-1H-imidazol-4-ylethynyl]-pyridine], the Ki worked out at 26 nM.
With `Cc1ccnc(-n2cc(C#Cc3ccnc(Cl)c3)nc2C)n1` [Example 25, 2-[4-(2-Chloro-pyridin-4-ylethynyl)-2-methyl-imidazol-1-yl]-4-methyl-pyrimidine] the figure was 40 nM.
With `COc1ccnc(-n2cc(C#Cc3ccnc(Cl)c3)nc2C)n1` [Example 26, 2-[4-(2-Chloro-pyridin-4-ylethynyl)-2-methyl-imidazol-1-yl]-4-methoxy-pyrimidine] the figure was 12 nM.
With `Cc1nc(C#Cc2ccnc(Cl)c2)cn1-c1ccnc(C(F)(F)F)n1` [Example 28, 4-[4-(2-Chloro-pyridin-4-ylethynyl)-2-methyl-imidazol-1-yl]-2-trifluoromethyl-pyrimidine] the figure was 23 nM; with `Cc1ccc(-n2cc(C#Cc3ccnc(Cl)c3)nc2C)nc1` [Example 30, 2-[4-(2-Chloro-pyridin-4-ylethynyl)-2-methyl-imidazol-1-yl]-5-methyl-pyridine], 36 nM.
With `Cc1nc(C#Cc2ccnc(C#N)c2)cn1-c1ccc(Cl)nc1` [Example 31, 4-[1-(6-Chloro-pyridin-3-yl)-2-methyl-1H-imidazol-4-ylethynyl]-pyridine-2-carbonitrile], the Ki stood at 69 nM.
With `Cc1nc(C#Cc2ccnc(Cl)c2)cn1-c1ccc(C2CC2)nc1` [Example 33, 5-[4-(2-Chloro-pyridin-4-ylethynyl)-2-methyl-imidazol-1-yl]-2-cyclopropyl-pyridine] the figure was 24 nM.
